The record followed here is ChEMBL document CHEMBL1201862, “PubChem BioAssay data set” (2004).

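Five compound concentrations were applied to cells in 96-well plates for 48 hours; endpoints were derived by simple linear interpolation of the resulting dose-response curve. At the GI50, growth is halved.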 Active and inactive are the calls of the source. No stated cut-off is given here; in the data, active = GI50 up to about 1.1 µM and inactive = higher.

Among the test systems are HL-60; NCI-H460; TK-10; MOLT-4; A549; CCRF-CEM; KM12; CAKI-1; M14; SNB-19; SK-MEL-5; RPMI-8226; ACHN; LOX IMVI; HT-29; A498.
Experiment in all cases: NCI-60 cell line screen, 48 h

In the case of `FC(F)(F)c1nc(-c2ccccc2Cl)[nH]c1C(F)(F)F`, the GI50 is 0.406 µM (active) in the test with HL-60; 0.859 µM (active) in the test with NCI-H460; 1.13 µM (inactive) with TK-10; 0.991 µM (active) with MOLT-4; 0.7 µM (active) in the test with A549; 0.504 µM (active) in the test on CCRF-CEM. Also, the GI50 with KM12 was 0.975 µM (active); with CAKI-1, 0.679 µM (active); in the test on M14, 1.12 µM (inactive); with SNB-19 it was 0.571 µM (active); in the test on SK-MEL-5, 0.348 µM (active); in the test on RPMI-8226 it was 2.66 µM (inactive). Moreover, the GI50 was 0.841 µM (active) in the test on ACHN, 0.459 µM (active) with LOX IMVI and 0.94 µM (active) in the test with HT-29.

For `O=C1c2ccccc2C(=O)C1C(c1ccc([N+](=O)[O-])cc1)C1C(=O)c2ccccc2C1=O`, the GI50 in the test with HL-60 is 58.3 µM (inactive); with NCI-H460, > 100 µM (inactive); in the test with TK-10, > 100 µM (inactive); in the test with MOLT-4, 36.9 µM (inactive); in the test on A549 it was > 100 µM (inactive); with CCRF-CEM it was 32.4 µM (inactive). In addition, the GI50 with KM12 is 90.8 µM (inactive); in the test with CAKI-1 it was 28.8 µM (inactive); with M14 it was 55.7 µM (inactive); in the test with SNB-19, > 100 µM (inactive); in the test with SK-MEL-5, > 100 µM (inactive); in the test on RPMI-8226 it was 54.5 µM (inactive). For the same molecule, the GI50 was > 100 µM (inactive) in the test with ACHN, 18 µM (inactive) in the test on LOX IMVI and > 100 µM (inactive) in the test with HT-29.

Take `O=c1nc(NC(c2ccccc2)(c2ccccc2)c2ccccc2)ccn1CCNCCn1ccc(NC(c2ccccc2)(c2ccccc2)c2ccccc2)nc1=O`: the GI50 was 2.41 µM (inactive) in the test with HL-60; 27 µM (inactive) with A498; 11.8 µM (inactive) in the test on NCI-H460; 26.9 µM (inactive) in the test on TK-10; 26.2 µM (inactive) in the test on A549; 5.96 µM (inactive) in the test on CCRF-CEM. Besides, the GI50 with KM12 was 3.44 µM (inactive); with CAKI-1 it was 14.8 µM (inactive); with M14 it was 18.3 µM (inactive); in the test on SNB-19, 9.27 µM (inactive); in the test with SK-MEL-5 it was 5.48 µM (inactive); in the test on RPMI-8226 it was 2.55 µM (inactive). For the same molecule, the GI50 was 40.6 µM (inactive) in the test on ACHN, 2.84 µM (inactive) in the test on LOX IMVI and 5.83 µM (inactive) in the test with HT-29.

In the case of `N#C/C(c1nc2ccccc2[nH]1)=c1\s/c(=C/c2ccc(Cl)cc2)c(=O)n1-c1ccccc1`, the GI50 with HL-60, in the test with A498, in the test with NCI-H460, in the test with TK-10, in the test with MOLT-4 and in the test on A549 was > 100 µM (inactive) each time. Moreover, the GI50 with CCRF-CEM, in the test on KM12, in the test on CAKI-1, in the test with M14, with SNB-19 and with SK-MEL-5 was > 100 µM (inactive) each time. Further, the GI50 in the test on RPMI-8226, in the test on ACHN and in the test with LOX IMVI was > 100 µM (inactive) throughout.

As to `O=[N+]([O-])c1ccc(N2C[N+](c3ccccc3)=NC(c3ccccc3)=N2)cc1`, the GI50 is 38.2 µM (inactive) with HL-60; 39.4 µM (inactive) in the test on NCI-H460; 40.7 µM (inactive) in the test with TK-10; 43.5 µM (inactive) in the test with MOLT-4; 34.6 µM (inactive) in the test on A549; 45.1 µM (inactive) in the test on CCRF-CEM. The GI50 was 29.4 µM (inactive) in the test on KM12; 63 µM (inactive) in the test on CAKI-1; 58.1 µM (inactive) in the test on M14; 38.6 µM (inactive) in the test on SNB-19; 29 µM (inactive) in the test on SK-MEL-5; 39.3 µM (inactive) in the test on RPMI-8226. Also, the GI50 is 19.3 µM (inactive) in the test on ACHN, 26.1 µM (inactive) with LOX IMVI and 43.9 µM (inactive) in the test on HT-29.

For `CC1(C)Cc2nnsc2C2=C1C(=O)CCS2`, the GI50 with HL-60, in the test on NCI-H460, with TK-10, in the test with MOLT-4, in the test with A549 and in the test on CCRF-CEM was > 100 µM (inactive) in each case. Also, the GI50 in the test on KM12, with CAKI-1, in the test on M14, with SNB-19, in the test with SK-MEL-5 and with RPMI-8226 was > 100 µM (inactive) throughout. Moreover, the GI50 in the test with ACHN, in the test with LOX IMVI and in the test with HT-29 was > 100 µM (inactive) each time.

Regarding `CCC(/C(=N/NC(=O)C[N+](C)(C)C)c1ccccc1)C1OC(=O)c2ccccc21` (configuration not stated), the GI50 in the test on HL-60, with NCI-H460, in the test on TK-10, in the test on MOLT-4, in the test on A549 and with CCRF-CEM was > 100 µM (inactive) in each case. For the same molecule, the GI50 in the test with KM12, in the test with CAKI-1, with M14, in the test with SNB-19, in the test with SK-MEL-5 and with RPMI-8226 was > 100 µM (inactive) in each case. Moreover, the GI50 in the test on ACHN, with LOX IMVI and in the test on HT-29 was > 100 µM (inactive) in each case.

Consider `CN(C)C(=S)/N=c1\ss/c(=N\c2ccccc2)n1-c1ccccc1`, for which the GI50 with HL-60 is 24.6 µM (inactive); with A498, 34 µM (inactive); in the test on TK-10 it was 25.8 µM (inactive); in the test with MOLT-4, 30 µM (inactive); in the test on A549 it was 25.6 µM (inactive); in the test on CCRF-CEM, 0.435 µM (active). In addition, the GI50 was 34.3 µM (inactive) in the test on CAKI-1; 14.7 µM (inactive) in the test on M14; 25.2 µM (inactive) in the test on ACHN; 17.1 µM (inactive) in the test on LOX IMVI; 0.154 µM (active) in the test with HT-29.

As to `O=C(O)CSc1nnc(-c2ccc(O)cc2)[nH]1`, the GI50 in the test with HL-60, in the test with A498, in the test with NCI-H460, in the test on TK-10, in the test with MOLT-4 and in the test with A549 was > 100 µM (inactive) in each case. Moreover, the GI50 in the test on CCRF-CEM, in the test on KM12, in the test with CAKI-1, with M14, in the test with SNB-19 and with SK-MEL-5 was > 100 µM (inactive) throughout. Also, the GI50 in the test on RPMI-8226, in the test with ACHN and with HT-29 was > 100 µM (inactive) throughout.

For `COc1ccc(OCC(=O)O)c2c1CCC(C(C)C)C2=O` (configuration not stated), the GI50 with HL-60, in the test with A498, in the test on NCI-H460, with TK-10, with MOLT-4 and in the test with A549 was > 100 µM (inactive) throughout. The GI50 in the test on CCRF-CEM, in the test on KM12, in the test with CAKI-1, in the test with M14, in the test on SNB-19 and in the test on SK-MEL-5 was > 100 µM (inactive) each time. For the same molecule, the GI50 with RPMI-8226, with ACHN, with LOX IMVI and with HT-29 was > 100 µM (inactive) throughout.

Consider `CC1CC[C@]2(C(=O)O)CCC3(C)C(=CCC4[C@@]5(C)CC[C@H](OS(=O)(=O)c6ccccc6)C(C)(C)C5CC[C@]43C)[C@@H]2[C@H]1C` (some centres not stated), for which the GI50 in the test on A498 is > 100 µM (inactive); in the test with NCI-H460, > 100 µM (inactive); with TK-10, > 100 µM (inactive); in the test with MOLT-4, 34.3 µM (inactive); in the test with A549, 36.6 µM (inactive); in the test with CCRF-CEM, 78 µM (inactive). Also, the GI50 was > 100 µM (inactive) with KM12; > 100 µM (inactive) in the test with CAKI-1; > 100 µM (inactive) in the test with M14; > 100 µM (inactive) in the test on SNB-19; > 100 µM (inactive) in the test on SK-MEL-5; 35 µM (inactive) in the test with RPMI-8226. The results for the GI50 in the test on ACHN, in the test on LOX IMVI and with HT-29 were 52.2 µM (inactive), 83 µM (inactive) and > 100 µM (inactive), respectively.

With `Cc1nc2ccccc2c(=O)[nH]1`, the GI50 in the test on HL-60, with A498, in the test with NCI-H460, in the test on TK-10, in the test on MOLT-4 and in the test on A549 was > 100 µM (inactive) throughout. The GI50 in the test with CCRF-CEM, in the test on KM12, in the test on M14, in the test on SNB-19, in the test with SK-MEL-5 and in the test on RPMI-8226 was > 100 µM (inactive) in each case. Moreover, the GI50 with ACHN, in the test on LOX IMVI and in the test with HT-29 was > 100 µM (inactive) in each case.

Regarding `CC(=O)OC(/C=C1/C=CC(=O)O1)COC(=O)c1ccccc1` (configuration not stated) [ACETYLMELODORINOL], the GI50 in the test on HL-60, with A498, in the test on NCI-H460, with TK-10, in the test on A549 and in the test on CCRF-CEM was > 31.2 µM (inactive) each time. The GI50 in the test with KM12, with CAKI-1, in the test with M14, in the test with SNB-19, in the test with SK-MEL-5 and in the test with RPMI-8226 was > 31.2 µM (inactive) throughout. Besides, the GI50 in the test on ACHN, with LOX IMVI and with HT-29 was > 31.2 µM (inactive) throughout.
